Laboratory results: patent US3963727A, “1,2 Disubstituted benzimidazole derivatives” (Daiichi Seiyaku Co., Ltd., priority 1975, dated 1976)
“Also recorded” adds a separate entry of the source. Read-outs that look alike come from different tables or passages of the source.

Experiments:
[1] = tested on: gnawing (stereotyped behavior induced by apomorphine); assay: Anti-apomorphine Test in Rats; type: in vivo, rats of Wistar strain (male); conditions: for ED50: read-out: ED50 and Its Confidence Limit; for Potency Ratio: anti-apomorphine ED50, relative to haloperidol = 1.0
Description: Six male rats of Wistar strain weighing 120 to 200 g were used at each dosage level. […] The effect against apomorphine was taken as positive when gnawing behavior was not noticed during the observation period of 1 minute. ED50 was calculated from the dose inhibition percet relationship.

[2] = tested on: conditioned avoidance (avoidance failure); assay: Conditioned Avoidance Test by Shuttle Box; type: in vivo, rats of Wistar strain (male); conditions: for ED50: read-out: ED50 and Its Confidence Limit; for Potency Ratio: conditioned avoidance ED50, relative to haloperidol = 1.0
Description: Use was made of a shuttle box consisted of two chambers divided by a plate with a square hole. The floor of each chamber was made of steel-rod grid which can be charged electrically. The whole apparatus was maintained in a sound proof room. The training schedule was as follows. Each trial was initiated by supplying the sound of buzzer as conditioned stimulus for 3 seconds. Unless the rats escaped to another compartment […] thereafter, the grid floor was electrified for 4 seconds as unconditioned stimulus. Each rat was trained for more than 2 weeks with a daily session of 30 trials at an interval of 60 seconds.
Six rats per group were subjected to 10 consecutive trails 1, 2, 4, 6, 8 and 10 hours after medication, respectively. In this case, a 3-second interval was taken between the termination of the conditioned stimulus and the onset of the unconditioned one. ED50 values at each time were calculated from the average percentages of avoidance failure.

Catalepsy Test in Rats = conditions: rat, in vivo, po
Description: (§1) After medication, both legs of the rats were put on a horizontal metal bar, 12 cm apart from the floor, and the rats were forced to stand on hind legs. Observation of rat behavior was made 1, 2, 4, 6, 8, 10, 12 and 24 hours later.

catalepsy [3] = assay: Catalepsy Test in Rats; conditions: for Potency Ratio: catalepsy ED50, relative to haloperidol = 1.0; for dissociation between the dose effective against methamphetamine and the dose inducing catalepsy / catalepsy: rat, oral, in words; for dissociation between the dose effective against methamphetamine and the dose inducing catalepsy: comparison of anti-methamphetamine and catalepsy tests
Description: as §1

[4] = tested on: stereotyped behavior induced with methamphetamine hydrochloride; assay: Anti-methamphetamine Test in Rats; conditions: for ED50: Rattus norvegicus, po, read-out: ED50 and Its Confidence Limit; for Potency Ratio: anti-methamphetamine ED50, relative to haloperidol = 1.0; for suppressing methamphetamine-induced stereotypy: rat, oral, in words
catalepsy [5] = conditions: rat, in vivo
Description: as §1

in vivo = conditions: rat, po
Description: as §1

[6] = rat, oral, apomorphine 1.25 mg/kg i.v., time of maximum effect 2 hrs

SMILES | ED50 ([1]; Rattus norvegicus, po, 1 h) [mg/kg] | Potency Ratio [1] | ED50 ([2]; Rattus norvegicus, po, 4 h) [mg/kg] | Potency Ratio [2] | ED50 at 8 h (Catalepsy Test in Rats) [mg/kg] | Potency Ratio (catalepsy [3]) | dissociation between the dose effective against methamphetamine and the dose inducing catalepsy (catalepsy [3]) | ED50 ([4]; 2 h) [mg/kg] | Potency Ratio [4] | ED50 [1, 6] [mg/kg] | ED50 ([2]; shuttle box, rat, oral, time of maximum effect 6 hrs) [mg/kg] | ED50 at 10 h (Catalepsy Test in Rats) [mg/kg] | catalepsy (catalepsy [3]) | suppressing methamphetamine-induced stereotypy [4] | ED50 ([2]; shuttle box, rat, oral, time of maximum effect 4 hrs) [mg/kg] | ED50 ([4]; 1 h) [mg/kg] | ED50 ([1]; Rattus norvegicus, po, 2 h) [mg/kg] | Potency Ratio (catalepsy [5]) | ED50 at 8 h (in vivo) [mg/kg]
O=C(CCCN1CCC(n2c(O)nc3ccccc32)CC1)c1ccc(F)cc1 [Benperidol, reference compound] | 0.62 | 1.1 | 0.81 | 0.7 | 0.92 | 0.95 | exhibit both the effects at almost the same dose level; also recorded: exhibit simultaneously both desired and undesired side-effects to almost the same extent at their effective dosages | 0.44 | 1.1 | – | – | – | – | – | – | – | – | – | –
O=C(CCCN1CCC(n2c(S)nc3ccccc32)CC1)c1ccc(F)cc1 [Compound A, 1-[1-(3-(4-fluorobenzoyl)propyl)-4-piperidyl]-2-mercaptobenzimidazole] | – | 7.5 | – | 8.8 | – | 3.5 | marked dissociation | 0.054 | 8.9 | 0.095 | 0.06 | 0.25 | produce catalepsy only in higher doses | highly effective in suppressing methamphetamine-induced stereotypy | – | – | – | – | –
CSc1nc2ccccc2n1C1CCN(CCCC(=O)c2ccc(F)cc2)CC1 [Compound B, 1-[1-(3-(4-fluorobenzoyl)propyl)-4-piperidyl]-2-methylmercaptobenzimidazole] | – | 1.7 | – | 1.6 | – | 1.3 | marked dissociation | – | 2.8 | 0.41 | – | 0.68 | produce catalepsy only in higher doses | highly effective in suppressing methamphetamine-induced stereotypy | 0.34 | 0.17 | – | – | –
O=C(CCCN1CCC(O)(c2ccc(Cl)cc2)CC1)c1ccc(F)cc1 [Haloperidol, reference compound] | – | – | 0.53 | – | – | – | exhibit both the effects at almost the same dose level; also recorded: exhibit simultaneously both desired and undesired side-effects to almost the same extent at their effective dosages | – | – | – | – | – | – | – | – | 0.48 | 0.71 | 1.0 | 0.88
